The test addresses 5-hydroxytryptamine receptor 4 (Rattus norvegicus, UniProt Q62758).

Molecules are shown by their SMILES.

5-hydroxytryptamine receptor 4, sequence (Q62758 whole entry): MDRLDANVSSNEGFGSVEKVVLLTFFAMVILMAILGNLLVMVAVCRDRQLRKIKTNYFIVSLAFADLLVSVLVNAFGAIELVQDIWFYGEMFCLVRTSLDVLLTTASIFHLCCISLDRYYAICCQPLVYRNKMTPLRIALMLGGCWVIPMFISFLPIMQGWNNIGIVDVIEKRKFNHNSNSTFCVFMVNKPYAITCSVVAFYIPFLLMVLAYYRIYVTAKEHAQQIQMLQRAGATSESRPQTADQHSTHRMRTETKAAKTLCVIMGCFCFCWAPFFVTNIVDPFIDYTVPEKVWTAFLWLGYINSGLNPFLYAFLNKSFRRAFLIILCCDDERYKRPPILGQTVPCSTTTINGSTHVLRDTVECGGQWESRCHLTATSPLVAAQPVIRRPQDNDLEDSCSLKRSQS

Consider `O=C(c1ccc(F)cc1)C1CCN(CCn2c(=O)[nH]c3ccccc3c2=O)CC1` [3-(2-{4-[(4-fluorophenyl)carbonyl]piperidin-1-yl}ethyl)-1,2,3,4-tetrahydroquinazoline-2,4-dione], for which the Ki – broadly, a measure of affinity in units of concentration, obtained from inhibition or displacement – turned out to be 1000 nM.
In turn, `COc1cc(N)c(Cl)cc1C(=O)NC1CCN2CCCC1C2` (centres undefined) [NSC_3035240] yielded a Ki of 243 nM.
`CNS(=O)(=O)Cc1ccc2[nH]cc(CCN(C)C)c2c1` [Sumax]: the affinity, expressed as Ki, was 1000 nM.
For `Cn1cc(CCN)c2cc(O)ccc21` [5-HT,omega-N-Me], the Ki was found to be 1450 nM.
`CN1C2CCC1CC(OC(=O)c1c[nH]c3ccccc13)C2` (centres undefined) returned a Ki of 544 nM.
As to `COc1ccc2[nH]cc(CCN)c2c1` [tryptamine, 5-Methoxy], the affinity corresponds to a Ki of 401 nM.
`CCN(CC)C(=O)[C@@H]1C=C2c3cccc4[nH]cc(c34)C[C@H]2N(C)C1` [(4R,7R)-N,N-diethyl-6-methyl-6,11-diazatetracyclo[7.6.1.0^{2,7}.0^{12,16}]hexadeca-1(16),2,9,12,14-pentaene-4-carboxamide] returned a Ki of 1000 nM.
Turning to `COc1cc(N)c(Cl)cc1C(=O)NC1CN2CCC1CC2` (centres undefined) [ZACOPRIDE,R], the Ki is 808 nM.
Next, `CCCN(CCC)C1CCc2cccc(O)c2C1` (centres undefined): 1000 nM.

These data come from BindingDB's records for PubMed 7796807 (Synaptic Pharmaceutical, 1995).
